From patent publication US20230183193A1, “4-DIFLUOROMETHYL BENZOYL AMIDES WITH HERBICIDAL ACTION” (BAYER CROPSCIENCE AKTIENGESELLSCHAFT, priority 2017, published 2023)

Legend:
Format in all cases: in vivo
Amaranthus retroflexus [1] = assay: Pre-emergence herbicidal action, AMARE; details: dosage 320 g/ha, scored visually after 3 weeks vs untreated controls
From the text: (§1) 1. Pre-Emergence Herbicidal Action Against Harmful Plants Seeds of monocotyledonous and dicotyledonous weed plants and crop plants are laid out in sandy loam soil in wood-fiber pots and covered with soil. The compounds of the invention, formulated in the form of wettable powders (WP) or as emulsion concentrates (EC), are then applied to the surface of the covering soil in the form of an aqueous suspension or emulsion at a water application rate equating to […], with addition of 0.2% wetting agent. After the treatment, the pots are placed in a greenhouse and kept under good growth conditions for the trial plants. The damage to the test plants is scored visually after a test period of 3 weeks by comparison with untreated controls (herbicidal activity in percent (%): 100% activity=the plants have died, 0% activity=like control plants).
(§2) For comparison, the herbicidal activity of numerous compounds according to the invention was tested with the structurally closest compounds known from the documents WO 2011/035874, WO 2012/028579 and WO 2012/126932, by the pre- and post-emergence method.

Stellaria media [2] = assay: Post-emergence herbicidal action, STEME; details: 80 g/ha, Table D
Description: (§3) Seeds of monocotyledonous and dicotyledonous weed and crop plants are laid out in sandy loam soil in wood-fiber pots, covered with soil and cultivated in a greenhouse under good growth conditions. 2 to 3 weeks after sowing, the test plants are treated at the one-leaf stage. The compounds of the invention, formulated in the form of wettable powders (WP) or as emulsion concentrates (EC), are then sprayed onto the green parts of the plants in the form of an aqueous suspension or emulsion at a water application rate equating to […], with addition of 0.2% wetting agent. After the test plants have been left to stand in the greenhouse under optimal growth conditions for about 3 weeks, the action of the preparations is assessed visually in comparison to untreated controls (herbicidal action in percent (%): 100% activity=the plants have died, 0% activity=like control plants). […] At the same time, inventive compounds leave Gramineae crops such as barley, wheat, rye, millet/sorghum, corn or rice virtually undamaged when applied post-emergence, even at high active compound dosages. In addition, some substances are also harmless to dicotyledonous crops such as soya, cotton, oilseed rape, sugar beet or potatoes. Some of the compounds according to the invention have high selectivity and are therefore suitable for controlling unwanted vegetation in agricultural crops by the post-emergence method. The data of Tables C and D below illustrate, in an exemplary manner, the […] herbicidal action of the compounds according to the invention, the herbicidal activity being stated in percent.
as §2

Pharbitis purpureum = assay: Post-emergence herbicidal action, PHBPU; details: 80 g/ha, Table D
Description: as §3, §2

Amaranthus retroflexus [3] = assay: Post-emergence herbicidal action, AMARE; details: 80 g/ha, Table D
Description: as §3, §2

Stellaria media [4] = assay: Pre-emergence herbicidal action, STEME; details: dosage 320 g/ha, scored visually after 3 weeks vs untreated controls
From the text: as §1, §2

Viola tricolor [5] = assay: Post-emergence herbicidal action, VIOTR; details: 80 g/ha, Table D
Description: as §3, §2

Abutilon theophrasti [6] = assay: Pre-emergence herbicidal action, ABUTH; details: dosage 320 g/ha, scored visually after 3 weeks vs untreated controls
From the text: as §1, §2

Matricaria inodora = assay: Pre-emergence herbicidal action, MATIN; details: dosage 320 g/ha, scored visually after 3 weeks vs untreated controls
From the text: as §1, §2

Viola tricolor [7] = assay: Pre-emergence herbicidal action, VIOTR; details: dosage 320 g/ha, scored visually after 3 weeks vs untreated controls
From the text: as §1, §2

Abutilon theophrasti [8] = assay: Post-emergence herbicidal action, ABUTH; details: 80 g/ha, Table D
Description: as §3, §2

Cyperus serotinus = assay: Pre-emergence herbicidal action, CYPES; details: dosage 320 g/ha, scored visually after 3 weeks vs untreated controls
From the text: as §1, §2

Setaria viridis [9] = assay: Post-emergence herbicidal action, SETVI; details: 80 g/ha, Table C
Description: as §3, §2

ECHCG = assay: Post-emergence herbicidal action, ECHCG; details: 80 g/ha, Table C
Description: as §3

Setaria viridis [10] = assay: Pre-emergence herbicidal action, SETVI; details: dosage 320 g/ha, scored visually after 3 weeks vs untreated controls
From the text: as §1, §2

Avena fatua = assay: Pre-emergence herbicidal action, AVEFA; details: dosage 320 g/ha, scored visually after 3 weeks vs untreated controls
From the text: as §1, §2

Alopecurus myosuroides = assay: Pre-emergence herbicidal action, ALOMY; details: dosage 320 g/ha, scored visually after 3 weeks vs untreated controls
From the text: as §1, §2

| SMILES | herbicidal activity AMARE (Amaranthus retroflexus [1]) [%] | Herbicidal activity STEME (Stellaria media [2]) [%] | Herbicidal activity PHBPU (Pharbitis purpureum) [%] | herbicidal activity AMARE (Amaranthus retroflexus [3]) [%] | Herbicidal activity STEME (Stellaria media [4]) [%] | herbicidal activity VIOTR (Viola tricolor [5]) [%] | herbicidal activity ABUTH (Abutilon theophrasti [6]) [%] | herbicidal activity MATIN (Matricaria inodora) [%] | herbicidal activity VIOTR (Viola tricolor [7]) [%] | herbicidal activity ABUTH (Abutilon theophrasti [8]) [%] | herbicidal activity CYPES (Cyperus serotinus) [%] | herbicidal activity SETVI (Setaria viridis [9]) [%] | Herbicidal activity ECHCG (ECHCG) [%] | herbicidal activity SETVI (Setaria viridis [10]) [%] | herbicidal activity AVEFA (Avena fatua) [%] | herbicidal activity ALOMY (Alopecurus myosuroides) [%] |
| --- | --- | --- | --- | --- | --- | --- | --- | --- | --- | --- | --- | --- | --- | --- | --- | --- |
| CSc1c(C(F)F)ccc(C(=O)Nc2ncnn2C)c1C1CC1 [Example 4-25] | 90 | 100 | 80 | 90 | 90 | 90 | 90 | 90 | 100 |  |  |  |  |  |  |  |
| CCS(=O)(=O)c1c(C(F)F)ccc(C(=O)Nc2ncnn2C)c1C1CC1 [Example 4-30] | 90 | 90 | 90 |  | 90 | 80 | 100 | 100 | 90 | 80 | 80 |  |  |  |  |  |
| CCSc1c(C(F)F)ccc(C(=O)Nc2ncnn2C)c1C [Example 4-4] | 100 | 90 | 80 | 100 | 100 | 100 |  | 100 | 100 | 80 |  | 90 | 100 |  |  |  |
| Cn1nnnc1NC(=O)c1ccc(C(F)F)c(S(C)(=O)=O)c1I [Example 1-75] | 90 | 100 | 80 | 90 | 100 |  | 90 | 90 | 90 |  |  |  |  | 100 |  |  |
| Cn1ncnc1NC(=O)c1ccc(C(F)F)c(S(C)(=O)=O)c1I [Example 4-75] | 100 | 90 | 80 | 100 | 100 | 80 | 100 | 100 | 90 |  | 80 |  |  | 90 |  |  |
| CC[S+]([O-])c1c(C(F)F)ccc(C(=O)Nc2ncnn2C)c1C1CC1 (stereo not shown) [Example 4-29] | 90 | 90 | 90 | 80 | 90 | 90 | 100 | 90 | 100 | 80 |  |  |  |  |  |  |
| CCSc1c(C(F)F)ccc(C(=O)Nc2ncnn2C)c1C1CC1 [Example 4-28] | 90 | 100 | 90 | 80 | 90 | 80 | 100 | 90 | 100 |  |  |  |  |  |  |  |
| CSc1c(C(F)F)ccc(C(=O)Nc2ncnn2C)c1F [Example 4-37] | 100 | 80 |  | 100 | 100 | 80 | 100 | 100 | 90 | 80 |  | 90 | 80 |  |  |  |
| CCSc1c(C(F)F)ccc(C(=O)Nc2ncnn2C)c1F [Example 4-40] | 100 | 90 |  | 100 | 100 | 80 | 100 | 100 | 100 | 80 | 100 | 90 | 90 | 80 |  |  |
| Cn1ncnc1NC(=O)c1ccc(C(F)F)c(S(C)(=O)=O)c1F [Example 4-39] | 100 | 100 | 90 | 90 | 100 | 90 | 100 | 90 | 100 | 90 |  |  |  | 100 |  |  |
| CCSc1c(C(F)F)ccc(C(=O)Nc2nonc2Cl)c1C [Example 6-4] | 100 | 90 | 80 |  | 90 | 100 | 90 | 90 | 100 | 90 |  | 100 | 100 | 100 | 90 |  |
| CCS(=O)(=O)c1c(C(F)F)ccc(C(=O)Nc2ncnn2C)c1C [Example 4-6] | 100 | 100 | 80 | 100 | 90 | 100 | 100 | 100 | 100 | 100 | 100 | 100 | 100 | 90 |  |  |
| CC[S+]([O-])c1c(C(F)F)ccc(C(=O)Nc2nonc2Cl)c1C (stereo not shown) [Example 6-5] | 100 | 90 |  |  | 90 | 100 | 100 | 90 | 100 | 80 |  | 90 | 100 | 100 | 90 | 90 |
| CC[S+]([O-])c1c(C(F)F)ccc(C(=O)Nc2ncnn2C)c1C (stereo not shown) [Example 4-5] | 100 | 90 | 90 | 90 |  | 100 |  | 90 | 100 | 80 |  | 90 | 90 |  |  |  |
| Cn1ncnc1NC(=O)c1ccc(C(F)F)c([S+](C)[O-])c1F (stereo not shown) [Example 4-38] |  | 90 | 90 | 90 |  | 100 | 90 |  |  | 90 |  |  | 80 |  |  |  |
| CC[S+]([O-])c1c(C(F)F)ccc(C(=O)Nc2ncnn2C)c1F (stereo not shown) [Example 4-41] | 100 | 90 | 90 | 90 | 80 | 90 | 100 |  | 90 | 100 |  |  | 80 | 80 |  |  |
